Results: ChEMBL document CHEMBL4622892, “New class of alkynyl glycoside analogues as tyrosinase inhibitors” (Bioorg Med Chem Lett, 2020)
Calls of active or inactive are those of the source. The calls are words filed in the database; no cut-off is given here.

Columns and labels:
Mushroom tyrosinase [1] = target: T1, Mushroom tyrosinase (Agaricus bisporus, UniProt O42713+Q00024+C7FF04+C7FF05)
Description: Inhibition of mushroom tyrosinase using L-DOPA as substrate

Mushroom tyrosinase [2] = target: T1, Mushroom tyrosinase; remark: listed apart in the source
Description: Inhibition of mushroom tyrosinase using L-tyrosine as substrate

[3] = target: T2, Mushroom tyrosinase (Agaricus bisporus) (UniProt O42713+Q00024+C7FF04+C7FF05); assay: Reversible inhibition of mushroom tyrosinase using L-tyrosine as substrate by Lineweaver-Burk plot analysis
Mushroom tyrosinase [4] = target: T1, Mushroom tyrosinase; assay: Non-competitive inhibition of mushroom tyrosinase using L-tyrosine as substrate by Lineweaver-Burk blot analysis
Mushroom tyrosinase [5] = target: T1, Mushroom tyrosinase; assay: Non-competitive inhibition of mushroom tyrosinase using L-DOPA as substrate by Lineweaver-Burk blot analysis
[6] = target: T2, Mushroom tyrosinase (Agaricus bisporus); assay: Reversible inhibition of mushroom tyrosinase using L-DOPA as substrate by Lineweaver-Burk plot analysis
[7] = target: T2, Mushroom tyrosinase (Agaricus bisporus); assay: […] inhibition of mushroom tyrosinase using L-tyrosine as substrate by Lineweaver-Burk blot analysis

Row | Compound | IC50 (Mushroom tyrosinase [1]) [µM] | IC50 (Mushroom tyrosinase [2]) [µM] | other results
1 | CO[C@H]1O[C@H](CO)[C@@H](OCc2ccccc2)[C@H](OCc2ccccc2)[C@H]1OCc1ccccc1 | > 500 | > 500 | –
2 | OC[C@H]1OC(OCc2ccccc2)[C@H](OCc2ccccc2)[C@@H](OCc2ccccc2)[C@@H]1OCc1ccccc1 (some centres undefined) | > 500 | > 500 | –
3 | CC#CCOC1O[C@H](CO)[C@@H](OCc2ccccc2)[C@H](OCc2ccccc2)[C@H]1OCc1ccccc1 (some centres undefined) | 80.4 | > 500 | –
4 | C#CCO[C@@H]1O[C@@H]2CO[C@@H](c3ccccc3)O[C@H]2[C@H](OCc2ccccc2)[C@H]1OCc1ccccc1 | > 500 | > 500 | –
5 | C#CCOC1O[C@@H]2CO[C@@H](c3ccccc3)O[C@H]2[C@H](OCc2ccccc2)[C@H]1OCc1ccccc1 (some centres undefined) | 383 | > 500 | –
6 | COC[C@H]1O[C@H](OC)[C@H](OCc2ccccc2)[C@@H](OCc2ccccc2)[C@@H]1OCc1ccccc1 | 494 | > 500 | –
7 | C#CCCOC1O[C@H](COC(C)=O)[C@@H](OCc2ccccc2)[C@H](OCc2ccccc2)[C@H]1OCc1ccccc1 (some centres undefined) | > 500 | 268 | –
8 | CC#CCO[C@H]1O[C@H](COCc2ccccc2)[C@@H](OCc2ccccc2)[C@H](OCc2ccccc2)[C@H]1OCc1ccccc1 | > 500 | 321 | –
9 | C#CCOC1O[C@H](CO)[C@@H](OCc2ccccc2)[C@H](OCc2ccccc2)[C@H]1OCc1ccccc1 (some centres undefined) | > 500 | > 500 | –
10 | C#CCOC[C@H]1O[C@H](OC)[C@H](OCc2ccccc2)[C@@H](OCc2ccccc2)[C@@H]1OCc1ccccc1 | > 500 | > 500 | –
11 | COC[C@H]1OC(OCc2ccccc2)[C@H](OCc2ccccc2)[C@@H](OCc2ccccc2)[C@@H]1OCc1ccccc1 (some centres undefined) | 435 | > 500 | –
12 | CC#CCOC[C@H]1OC(OC)[C@H](OCc2ccccc2)[C@@H](OCc2ccccc2)[C@@H]1OCc1ccccc1 (some centres undefined) | > 500 | 274 | –
13 | CC#CCOC[C@H]1OC(OCC#CC)[C@H](OCc2ccccc2)[C@@H](OCc2ccccc2)[C@@H]1OCc1ccccc1 (some centres undefined) | > 500 | 72 | inhibition [3]: Active; Ki (Mushroom tyrosinase [4]): 32 µM
14 | C#CCCCOC1O[C@H](COCc2ccccc2)[C@@H](OCc2ccccc2)[C@H](OCc2ccccc2)[C@H]1OCc1ccccc1 (some centres undefined) | > 500 | 105 | –
15 | C#CCCO[C@H]1O[C@@H]2CO[C@@H](c3ccccc3)O[C@H]2[C@H](OCc2ccccc2)[C@H]1OCc1ccccc1 | > 500 | > 500 | –
16 | CO[C@H]1O[C@H](COCc2ccccc2)[C@@H](OCc2ccccc2)[C@H](OCc2ccccc2)[C@H]1OCc1ccccc1 | > 500 | 191 | –
17 | c1ccc(COC[C@H]2OC(OCc3ccccc3)[C@H](OCc3ccccc3)[C@@H](OCc3ccccc3)[C@@H]2OCc2ccccc2)cc1 (some centres undefined) | > 500 | > 500 | –
18 | CC#CCOC1O[C@H](COC(C)=O)[C@@H](OCc2ccccc2)[C@H](OCc2ccccc2)[C@H]1OCc1ccccc1 (some centres undefined) | 400 | 219 | –
19 | CC#CCO[C@H]1O[C@@H]2CO[C@@H](c3ccccc3)O[C@H]2[C@H](OCc2ccccc2)[C@H]1OCc1ccccc1 | > 500 | > 500 | –
20 | C#CCO[C@H]1O[C@@H]2CO[C@@H](c3ccccc3)O[C@H]2[C@H](OCc2ccccc2)[C@H]1OCc1ccccc1 | 431 | > 500 | –
21 | CC#CCO[C@@H]1O[C@H](COCc2ccccc2)[C@@H](OCc2ccccc2)[C@H](OCc2ccccc2)[C@H]1OCc1ccccc1 | > 500 | 179 | –
22 | C#CCCOC1O[C@H](COC)[C@@H](OCc2ccccc2)[C@H](OCc2ccccc2)[C@H]1OCc1ccccc1 (some centres undefined) | > 500 | > 500 | –
23 | C#CCO[C@@H]1O[C@H](COCc2ccccc2)[C@@H](OCc2ccccc2)[C@H](OCc2ccccc2)[C@H]1OCc1ccccc1 | > 500 | 94.7 | –
24 | C#CCCCOC1O[C@H](COC)[C@@H](OCc2ccccc2)[C@H](OCc2ccccc2)[C@H]1OCc1ccccc1 (some centres undefined) | > 500 | > 500 | –

Row | Compound | IC50 (Mushroom tyrosinase [1]) [µM] | IC50 (Mushroom tyrosinase [2]) [µM] | other results
25 | C#CCOC1O[C@H](COC)[C@@H](OCc2ccccc2)[C@H](OCc2ccccc2)[C@H]1OCc1ccccc1 (some centres undefined) | > 500 | > 500 | –
26 | CC#CCO[C@@H]1O[C@@H]2CO[C@@H](c3ccccc3)O[C@H]2[C@H](OCc2ccccc2)[C@H]1OCc1ccccc1 | > 500 | > 500 | –
27 | C#CCO[C@H]1O[C@H](COCc2ccccc2)[C@@H](OCc2ccccc2)[C@H](OCc2ccccc2)[C@H]1OCc1ccccc1 | > 500 | > 500 | –
28 | C#CCCOC1O[C@@H]2CO[C@@H](c3ccccc3)O[C@H]2[C@H](OCc2ccccc2)[C@H]1OCc1ccccc1 (some centres undefined) | 257 | > 500 | –
29 | CC#CCOC1O[C@H](COC)[C@@H](OCc2ccccc2)[C@H](OCc2ccccc2)[C@H]1OCc1ccccc1 (some centres undefined) | 45.4 | 73.6 | Ki (Mushroom tyrosinase [5]): 52 µM; inhibition [6]: Active
30 | C#CCCO[C@@H]1O[C@@H]2CO[C@@H](c3ccccc3)O[C@H]2[C@H](OCc2ccccc2)[C@H]1OCc1ccccc1 | > 500 | > 500 | –
31 | C#CCOC1O[C@H](COCc2ccccc2)[C@@H](OCc2ccccc2)[C@H](OCc2ccccc2)[C@H]1OCc1ccccc1 (some centres undefined) | > 500 | 81.9 | –
32 | CC#CCOC[C@H]1OC(OCc2ccccc2)[C@H](OCc2ccccc2)[C@@H](OCc2ccccc2)[C@@H]1OCc1ccccc1 (some centres undefined) | > 500 | > 500 | –
33 | C#CCOC1O[C@H](COCC#CC)[C@@H](OCc2ccccc2)[C@H](OCc2ccccc2)[C@H]1OCc1ccccc1 (some centres undefined) | > 500 | > 500 | –
34 | C#CCCOC1O[C@@H]2CO[C@@H](c3ccccc3)O[C@H]2[C@H](O)[C@H]1O (some centres undefined) | 207 | 463 | –
35 | CC(=O)OC[C@H]1OC(OCc2ccccc2)[C@H](OCc2ccccc2)[C@@H](OCc2ccccc2)[C@@H]1OCc1ccccc1 (some centres undefined) | 357 | 273 | –
36 | C#CCOC1O[C@@H]2CO[C@@H](c3ccccc3)O[C@H]2[C@H](O)[C@H]1O (some centres undefined) | > 500 | > 500 | –
37 | CO[C@H]1O[C@H](COC(C)=O)[C@@H](OCc2ccccc2)[C@H](OCc2ccccc2)[C@H]1OCc1ccccc1 | > 500 | > 500 | –
38 | C#CCOC1O[C@H](COC(C)=O)[C@@H](OCc2ccccc2)[C@H](OCc2ccccc2)[C@H]1OCc1ccccc1 (some centres undefined) | > 500 | 461 | –
39 | C#CCOC[C@H]1OC(OCC#CC)[C@H](OCc2ccccc2)[C@@H](OCc2ccccc2)[C@@H]1OCc1ccccc1 (some centres undefined) | 288 | > 500 | –
40 | CC#CCOC1O[C@H](COCc2ccccc2)[C@@H](OCc2ccccc2)[C@H](OCc2ccccc2)[C@H]1OCc1ccccc1 (some centres undefined) | 70.7 | 54 | inhibition [7]: Active; Ki (Mushroom tyrosinase [4]): 21 µM
41 | CC#CCOC1O[C@@H]2CO[C@@H](c3ccccc3)O[C@H]2[C@H](O)[C@H]1O (some centres undefined) | > 500 | > 500 | –
42 | C#CCCCOC1O[C@H](CO)[C@@H](OCc2ccccc2)[C@H](OCc2ccccc2)[C@H]1OCc1ccccc1 (some centres undefined) | > 500 | > 500 | –
43 | C#CCOC[C@H]1OC(OCc2ccccc2)[C@H](OCc2ccccc2)[C@@H](OCc2ccccc2)[C@@H]1OCc1ccccc1 (some centres undefined) | > 500 | 205 | –
44 | C#CCCOC1O[C@H](CO)[C@@H](OCc2ccccc2)[C@H](OCc2ccccc2)[C@H]1OCc1ccccc1 (some centres undefined) | > 500 | > 500 | –
45 | C#CCCCOC1O[C@H](COC(C)=O)[C@@H](OCc2ccccc2)[C@H](OCc2ccccc2)[C@H]1OCc1ccccc1 (some centres undefined) | > 500 | 208 | –
46 | CC#CCOC1O[C@@H]2CO[C@@H](c3ccccc3)O[C@H]2[C@H](OCc2ccccc2)[C@H]1OCc1ccccc1 (some centres undefined) | > 500 | > 500 | –
47 | C#CCCOC1O[C@H](COCc2ccccc2)[C@@H](OCc2ccccc2)[C@H](OCc2ccccc2)[C@H]1OCc1ccccc1 (some centres undefined) | 34.3 | 150 | Ki (Mushroom tyrosinase [5]): 49 µM; inhibition [6]: Active
48 | C#CCOC[C@H]1OC(OCC#C)[C@H](OCc2ccccc2)[C@@H](OCc2ccccc2)[C@@H]1OCc1ccccc1 (some centres undefined) | > 500 | > 500 | –
